Results from patent US8999408B2, “Amla extract for transdermal application” (priority 2006, dated 2015).

How the values were obtained:
[1] = Transdermal diffusion of Vitamin C / reductones across guinea pig abdominal skin in a diffusion cell; assay type: in vitro ADME; settings: for Reductones transported across the guinea pig membrane: 3 hours, 37° C., phosphate buffer pH 7; for Fraction trans-dermal percent: 10 mg applied, after 3 hours, relative to reductone equivalent present in application
Procedure: The diffusion studies were carried out across the guinea pig abdominal skin. […] The guinea pig abdominal skin was placed between the upper and lower chambers of the diffusion cell, thereby separating the 2 chambers. The test composition was introduced into the upper chamber. Migration of the components from the upper chamber to the lower chamber (which had liquid or buffer at body pH) through the guinea pig abdominal skin allowed comparative studies for extent of migration of the components from different test compositions.
After introducing the test material in the upper chamber, the diffusion was carried out for 3 hours.
The lower chamber of the diffusion cells were filled with 15 ml of phosphate buffer, pH 7, and the prepared guinea pig skins were fixed on each diffusion cell between the upper and lower chambers of the diffusion cell. The temperature of the diffusion cell was maintained at 37° C.
The diffusion across the skin membrane of active ingredients, that is, scorbutic reductones (that is Vitamin C actives substances including ascorbic acid) and hydrogen ions was carried out for three hours.
To an aliquot (5 ml) of supernatant of the HPO3 extract 2.5 ml of acetone was added and the resulting solution was titrated with dye 2,6-dichloro indophenol until a faint pink color persisted for 15 seconds. The concentration of Vitamin C in the sample was expressed as mg ascorbic acid equivalent to 1 ml of the dye solution.

[2] = Radical scavenging by the DPPH (diphenylpicryl-hydrazyl) method; settings: 10 mg dose

In the case of `O=C1O[C@H]([C@@H](O)CO)C(O)=C1O` [ascorbic acid], the “Reductones transported across the guinea pig membrane” value ([1]; 10 mg applied on guinea pig membrane) is reported as 0.3 mg, the Fraction trans-dermal percent [1] is reported as 3.0% and the Fraction trans-dermal percent ([1]; listed as Vitamin C) is reported as 3%. For the same compound, the “Reductones transported across the guinea pig membrane” value ([1]; 100 mg applied on guinea pig membrane) was 8.4 mg and the “inhibition (DPPH radical scavenging)” value [2] was −4.66%.
